Paper PMC4310350 (Drug Design, Development and Therapy, 2015)
Entries after “also recorded” stand apart in the source; their conditions may differ. Read-outs that look alike come from different tables or passages of the source. One block for each molecule: values may come before it.

Columns and labels:
OAT3 [1] = target: T1, OAT3 (Homo sapiens, UniProt Q8TCC7); conditions: cited from earlier work
T1 sequence (Q8TCC7 1-542): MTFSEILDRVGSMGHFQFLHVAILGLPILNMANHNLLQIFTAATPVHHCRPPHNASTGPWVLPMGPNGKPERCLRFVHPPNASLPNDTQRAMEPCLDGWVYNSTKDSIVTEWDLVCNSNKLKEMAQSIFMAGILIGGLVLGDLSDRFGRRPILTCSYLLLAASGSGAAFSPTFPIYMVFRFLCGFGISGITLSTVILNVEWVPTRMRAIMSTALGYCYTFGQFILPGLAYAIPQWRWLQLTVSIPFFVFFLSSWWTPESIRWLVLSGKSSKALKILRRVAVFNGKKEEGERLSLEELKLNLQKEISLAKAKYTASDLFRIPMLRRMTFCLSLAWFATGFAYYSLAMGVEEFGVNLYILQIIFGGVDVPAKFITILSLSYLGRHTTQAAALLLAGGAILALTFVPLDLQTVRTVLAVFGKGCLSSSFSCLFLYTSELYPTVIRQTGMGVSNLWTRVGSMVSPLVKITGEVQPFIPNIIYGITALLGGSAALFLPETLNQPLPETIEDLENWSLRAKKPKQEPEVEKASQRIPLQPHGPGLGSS

OAT1 = target: T2, OAT1 (Homo sapiens, UniProt Q4U2R8); conditions: cited from earlier work
T2 sequence (Q4U2R8 1-563): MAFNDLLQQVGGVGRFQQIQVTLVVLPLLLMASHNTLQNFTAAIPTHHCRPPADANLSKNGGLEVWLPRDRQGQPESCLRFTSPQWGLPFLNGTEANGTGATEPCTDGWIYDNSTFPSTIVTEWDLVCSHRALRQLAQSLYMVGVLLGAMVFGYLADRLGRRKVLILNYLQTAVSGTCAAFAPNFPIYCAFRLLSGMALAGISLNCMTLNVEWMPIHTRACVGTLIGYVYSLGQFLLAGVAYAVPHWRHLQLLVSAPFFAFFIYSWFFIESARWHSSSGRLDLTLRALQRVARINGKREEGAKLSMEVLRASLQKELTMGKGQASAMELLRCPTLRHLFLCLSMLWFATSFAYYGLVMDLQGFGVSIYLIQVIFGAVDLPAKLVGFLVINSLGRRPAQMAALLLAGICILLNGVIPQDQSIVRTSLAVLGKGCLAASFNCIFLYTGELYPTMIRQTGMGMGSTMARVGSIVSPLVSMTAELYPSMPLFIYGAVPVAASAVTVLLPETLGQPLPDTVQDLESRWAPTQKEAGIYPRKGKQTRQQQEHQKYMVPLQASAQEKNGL

OATP1B3 = target: T3, OATP1B3 (Homo sapiens, UniProt Q9NPD5); conditions: cited from earlier work
T3 sequence (Q9NPD5 1-702): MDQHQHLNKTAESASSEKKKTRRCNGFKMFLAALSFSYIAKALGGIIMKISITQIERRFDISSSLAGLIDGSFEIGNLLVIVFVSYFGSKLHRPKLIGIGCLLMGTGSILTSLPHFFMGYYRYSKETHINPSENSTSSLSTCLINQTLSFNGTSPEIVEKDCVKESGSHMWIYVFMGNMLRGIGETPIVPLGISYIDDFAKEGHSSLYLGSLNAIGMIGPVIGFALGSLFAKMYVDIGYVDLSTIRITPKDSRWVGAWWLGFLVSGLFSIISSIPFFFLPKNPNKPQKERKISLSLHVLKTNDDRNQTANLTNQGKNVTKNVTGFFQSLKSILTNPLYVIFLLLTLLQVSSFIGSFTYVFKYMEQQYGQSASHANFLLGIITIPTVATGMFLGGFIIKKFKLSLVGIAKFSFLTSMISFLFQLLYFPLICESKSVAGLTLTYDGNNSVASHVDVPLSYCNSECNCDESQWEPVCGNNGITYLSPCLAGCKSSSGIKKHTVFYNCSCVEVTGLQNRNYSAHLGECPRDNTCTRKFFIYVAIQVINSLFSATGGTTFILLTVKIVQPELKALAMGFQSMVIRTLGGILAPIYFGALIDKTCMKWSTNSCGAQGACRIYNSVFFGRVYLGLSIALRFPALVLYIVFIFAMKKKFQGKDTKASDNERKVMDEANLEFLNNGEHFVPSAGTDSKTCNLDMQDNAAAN

OAT3 [2] = target: T1, OAT3; assay: in vitro; conditions: HEK293 cells transiently expressing OAT3, probe catalposide 10 μM
OAT3 [3] = target: T1, OAT3; conditions: 10 μM catalposide, HEK293-OAT3
OATP2B1 = conditions: cited from earlier work
[4] = substrate: O=C(O[C@H]1[C@@H]2C=CO[C@@H](O[C@@H]3O[C@H](CO)[C@@H](O)[C@H](O)[C@H]3O)[C@@H]2[C@@]2(CO)O[C@@H]12)c1ccc(O)cc1; assay: Uptake in HEK293 cells overexpressing OAT3; assay type: in vitro ADME; conditions: other: OAT3-mediated uptake, 2–500 μM catalposide, 10 minutes; 37.0 °C

Molecule: O=c1cc(-c2ccccc2)oc2cc(O)c(O)c(O)c12 [Bicalein]
Inhibition of OAT3 transport activity (OAT3 [1]): significantly inhibited | Inhibition of OAT1 transport activity (OAT1): significantly inhibited | Inhibition of OATP1B3 transport activity (OATP1B3): significantly inhibited

inhibition at 10 min, 100 μM (OAT3 [2]): 70.4% | Effect on OAT3-mediated catalposide uptake (words) (OAT3 [3]): decreased to basal levels
Molecule: CN/C(=N/CCSCc1nc[nH]c1C)NC#N [cimetidine]
Effect on OAT3-mediated catalposide uptake (words) (OAT3 [3]; listed as Cimetidine): inhibited OAT3-mediated catalposide transport in a concentration-dependent manner

Molecule: COc1c(O)cc(O)c2c(=O)cc(-c3ccccc3)oc12 [wogonin]
Inhibition of OAT3 transport activity (OAT3 [1]): significantly inhibited | Inhibition of OAT1 transport activity (OAT1): significantly inhibited | Inhibition of OATP1B3 transport activity (OATP1B3): significantly inhibited

inhibition at 10 min, 10 μM (OAT3 [2]): 84.5%
Molecule: CCCN(CCC)S(=O)(=O)c1ccc(C(=O)O)cc1 [probenecid]
Effect on OAT3-mediated catalposide uptake (words) (OAT3 [3]): decreased to basal levels; also recorded: inhibited OAT3-mediated catalposide transport in a concentration-dependent manner

Molecule: COc1ccc(-c2oc3c(CC=C(C)C)c(O[C@@H]4O[C@H](CO)[C@@H](O)[C@H](O)[C@H]4O)cc(O)c3c(=O)c2O[C@@H]2O[C@@H](C)[C@H](O)[C@@H](O)[C@H]2O)cc1 [icariin]
Inhibition of OATP2B1 activity (OATP2B1): potentially inhibited | Inhibition of OATP1B3 activity (OATP1B3): potentially inhibited

B1: OAT3 (Homo sapiens) (protein)
chain: T1 sequence (Q8TCC7 1-542)
Km [4]: 41.5 µM
